Assay results as given in patent US20010025105A1, “Certain substituted 1-aryl-3-piperazine-1'-yl propanones” (Molecular Geriatarics Corporation, priority 1997, published 2001).

What was measured:
[1] = tested on: TG3 immunoreactivity in OKA treated MSN1a cells; assay: MSN1a cell culture model, ELISA with TG3 antibody, okadaic acid treated cells; assay type: cell-based, human; settings: Homo sapiens, 1 μM OKA, 2 hrs at 37° C., read-out: IC50 for inhibition of TG3 immunoreactivity in OKA treated MSN1a cells
Method in brief: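 Human MSN1a neuroblastoma cells (2×10^4/well) in KRH pH 7.4 were exposed 2 h at 37 °C to 1 μM okadaic acid plus 0–64 μM compound (0.26% DMSO final). Lysates were coated onto ELISA plates and probed with TG3 and an alkaline phosphatase secondary. Absorbance was read at 405 nm with p-nitrophenyl phosphate substrate.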

[2] = tested on: paired helical filament epitopes in MSN1a cells; assay: Western blot of PHF-1 immunoreactivity in lysates of MSN1a cells; assay type: cell-based, human; settings: 100 μM chlorpromazine, 2 hours at 37° C.
Description: These compounds are effective at micromolar concentrations, with increased potency being evident when cells are treated prior to the addition of okadaic acid. The effective concentrations appear to be in the range at which these drugs are present in the brain following chronic treatment of psychiatric patients (Svendsen, C N, Psychopharnacology, 90, 316-321, 1986). […] The cells were isolated by centrifugation, boiled for 10 minutes and […] protein from the resulting heat stable supernatants were loaded per lane on an SDS-PAGE gel. The gel was electrophoretically transferred to nitrocellulose membrane and then immnunostained with PHF-1. […] The use of the MSN1a cell culture model for screening of novel compounds for therapeutic activity in AD is, therefore, quite warranted.

[3] = tested on: PHF epitopes in human brain tissue; assay: Retrospective study of autopsy brain tissue of chronically treated patients, direct ELISA using TG3 antibody; assay type: in vivo; settings: N 51, sum of absorbance readings for 8 dilutions
Excerpt: In a subsequent study, 51 additional patients were identified and the analysis was repeated as above using the TG3 antibody in an ELISA format.

[4] = tested on: PHF epitope levels in human brain tissue; assay: Retrospective study of autopsy brain tissue of chronically treated patients, ALZ-EIA method; assay type: in vivo; settings: frontal (Broadman area 10) and temporal (Broadman area 38) regions, FIGS. 4A and 4B
Description: Frontal and cortical brain tissue specimens obtained at autopsy from patients chronically treated with chlorpromazine were analyzed using the ALZ-EIA method previously described (Ghanbari, H A, et al, JAMA, 263, 2907, 1990). […] The brain tissue (post-mortem) from approximately the same number of (age matched) normal controls and Alzheimer's Disease patients were also analyzed and are presented in these figures as negative and positive controls (for normal and AD, respectively). […] Bick, K L. Raven Press, New York, 1994).

Q: Which results are given for `CN(C)CCCN1c2ccccc2Sc2ccc(Cl)cc21` [Chlorpromazine, chlorpromazine]?
A: IC50 [1]: ~70 µM; production of paired helical filament epitopes (PHF-1 immunoreactivity, western blot) ([2]; FIG. 3): markedly inhibit the expression of PHF epitopes; production of paired helical filament epitopes (PHF-1 immunoreactivity, western blot) ([2]; FIG. 3, listed as CPZ): greatly decreased the production of paired helical filament epitopes; SIGNAL ± SEM Frontal ([3]; post-mortem frontal brain tissue): 0.12 ± 0.11; SIGNAL ± SEM Temporal ([3]; post-mortem temporal brain tissue): 0.16 ± 0.11; PHF epitope levels (ALZ-EIA) [4]: low PHF epitope levels similar to normal controls
